In patent US8450305B2, “Macrocyclic compounds useful as inhibitors of kinases and HSP90” (Universite de Strasbourg, priority 2006, dated 2013):
Like-named read-outs stand apart in the source and are kept apart here.

Legend:
[1] = test system: HCC1954 tumor cells; assay: Cytotoxicity, MTS assay, HCC1954; type: cell-based; conditions: Homo sapiens, 72 hours
Description: (§1) Tumor cells were grown as adherent monolayers at 37° C. in a humidified atmosphere (5% CO2, 95% air). The culture medium was RPMI 1640 containing 2 mM L-glutamine (Ref BE12-702F, Cambrex, Verviers, Belgium) and supplemented with 10% fetal bovine serum (Ref DE14-801E, Cambrex). For experimental use, the adherent tumour cells were detached from the culture flask by a 5-minute treatment with trypsin-versene (Ref O2-007E, Cambrex), diluted in Hanks' medium without calcium or magnesium (Ref BE10-543F, Cambrex) and neutralized by addition of complete culture medium. Before use, cells were counted in a hemocytometer and their viability were assessed by 0.25% trypan blue exclusion. Mycoplasma detection was performed using the MycoAlert® Mycoplasma Detection Kit (Ref LT07-318, Cambrex) in accordance with the manufacturer instructions. The MycoAlert®Assay is a selective biochemical test that exploits the activity of mycoplasmal enzymes. The viable mycoplasma are lysed and the enzymes react with the MycoAlert® substrate catalyzing the conversion of ADP to ATP. By measuring the level of ATP in a sample both before and after the addition of the MycoAlert® substrate a ratio can be obtained which is indicative of the presence or absence of mycoplasma. The mycoplasma test was assayed in duplicate from the culture supernatants of the cell lines and compared to negative and positive controls (MycoAlert® Assay Control Set, Ref LT07-518, Cambrex) (Internal Standard Operating Procedure No TEC-007/002). Both HCC1954 and SK-BR-3 tumour cells (5,000 cells per well) were plated in 96-well flat-bottom microtitration plates (Ref 167008, Nunc, Dutscher, Brumath, France) and incubated at 37° C. for 24 hours before treatment in 190 μl of drug-free culture medium supplemented with 10% FBS. Both HCC1954 and SK-BR-3 tumour cell lines were incubated for 72 hours with […], in ¼ dilution steps, of the test substances (ranging from […]) to be tested as well as paclitaxel (ranging from 10^−7 to 10^−12 M). The cells (190 μl) will be incubated in a 200 μl final volume of culture medium supplemented with 10% FBS containing test substances at 37° C. under 5% CO2. One experiment is performed, each concentration being issued from quadruplicate. Control cells are treated with corresponding vehicle alone. At the end of treatments, the cytotoxic activity is evaluated by a MTS assay. […] Like MTT, MTS is bioreduced by cells into a formazan product that is directly soluble in culture medium without processing, unlike MTT.
(§2) At the end of the cells treatment, 40 μl of a 0.22 μm filtered freshly combined solution of MTS (20 ml at 2 mg/ml, Ref G1111A, Promega, Charbonnières, France) and PMS (1 ml at 0.92 mg/ml, Ref P9625, Sigma) in Dulbecco's Phosphate Buffered Saline (DPBS, Ref 17-513F, Cambrex), were added in each well. Culture plates were incubated for 2 h at 37° C. Absorbency (OD) will be measured at 490 nm in each well using VICTOR^3™ 1420 multilabeled counter (Wallac, PerkinElmer, Courtaboeuf, France).

[2] = test system: SK-BR-3 tumor cells; assay: Cytotoxicity, MTS assay, SK-BR-3; type: cell-based; conditions: Homo sapiens, 72 hours
Description: as §1, §2

[3] = rcm bond, Grubbs II, toluene, 2.0 mM, 80.0 °C
[4] = biological target: T1, EGF-R (Homo sapiens, UniProt P00533); assay: Radiometric protein kinase assay, EGF-R; type: biochemical; conditions: 1 μM ATP; read-out: Inhibitory activity (IC50:μM) EGF-R
T1 construct: host or cells: Sf9 insect cells (baculovirus)
Description: (§3) All protein kinases were expressed in Sf9 insect cells as human recombinant GST-fusion proteins or His-tagged proteins by means of the baculovirus expression system. Kinases were purified by affinity chromatography using either GSH-agarose (Sigma) or Ni-NTH-agarose (Qiagen). The purity of each kinase was checked by SDS-PAGE/silver staining and the identity of each kinase was verified by western blot analysis with kinase specific antibodies or by mass spectroscopy.
(§4) A radiometric protein kinase assay (^33PanQinase® Activity Assay) was used for measuring the kinase activity of the 24 protein kinases. All kinase assays were performed in 96-well FlashPlates™ from Perkin Elmer (Boston, Mass., USA) in a 50 μl reaction volume. The reaction cocktail was pipetted in 4 steps in the following order: • 20 μl of assay buffer • 5 μl of ATP solution (in H2O) • 5 μl of test compound (in 10% DMSO) • 10 μl of substrate/10 […] of enzyme solution (premixed)
(§5) The assay for all enzymes contained 60 mM HEPES-NaOH, pH 7.5, 3 mM MgCl2, 3 mM MnCl2, 3 μM Na-orthovanadate, 1.2 mM DTT, 50 μg/ml PEG20000, 1 μM [γ-^33P]-ATP (approx. 5×10^05 cpm per well).
(§6) For the 24 kinase assays, the following amounts of enzyme and substrate were used per well:
(§7) The reaction cocktails were incubated at 30° C. for 80 minutes. The reaction was stopped with 50 μl of 2% (v/v) H3PO4, plates were aspirated and washed two times with 200 μl of 0.9% (w/v) NaCl or 200 μl H2O. Incorporation of ^33Pi was determined with a microplate scintillation counter (Microbeta Trilux, Wallac).
(§8) The median value of the counts in column 1 (n=8) of each assay plate was defined as “low control”. This value reflects unspecific binding of radioactivity to the plate in the absence of a protein kinase but in the presence of the substrate. The median value of the counts in column 7 of each assay plate (n=8) was taken as the “high control”, i.e. full activity in the absence of any inhibitor. The difference between high and low control was taken as 100% activity.
(§9) As part of the data evaluation the low control value from a particular plate was subtracted from the high control value as well as from all 80 “compound values” of the corresponding plate. The residual activity (in %) for each well of a particular plate was calculated by using the following formula: Res. Activity (%)=100×[(cpm of compound−low control)/(high control−low control)]
(§10) The residual activities for each concentration and the compound IC50 values were calculated using Quattro Workflow V2.1.0.0 (Quattro Research GmbH, Munich, Germany; www.quattro-research.com). The model used was “Sigmoidal response (variable slope)” with parameters “top” fixed at 100% and “bottom” at 0%.

[5] = biological target: T2, IGF1-R (Homo sapiens, UniProt P08069); assay: Radiometric protein kinase assay, IGF1-R; type: biochemical; conditions: 1 μM ATP; read-out: Inhibitory activity (IC50:μM) IGF1-R
T2 construct: host or cells: Sf9 insect cells (baculovirus)
Description: as §3, §4, §5, §6, §7, §8, §9, §10

[6] = biological target: T3, SRC (Homo sapiens, UniProt P12931); assay: Radiometric protein kinase assay, SRC; type: biochemical; conditions: 1 μM ATP; read-out: Inhibitory activity (IC50:μM) SRC
T3 construct: host or cells: Sf9 insect cells (baculovirus)
Description: as §3, §4, §5, §6, §7, §8, §9, §10

T3 sequence (P12931 whole entry): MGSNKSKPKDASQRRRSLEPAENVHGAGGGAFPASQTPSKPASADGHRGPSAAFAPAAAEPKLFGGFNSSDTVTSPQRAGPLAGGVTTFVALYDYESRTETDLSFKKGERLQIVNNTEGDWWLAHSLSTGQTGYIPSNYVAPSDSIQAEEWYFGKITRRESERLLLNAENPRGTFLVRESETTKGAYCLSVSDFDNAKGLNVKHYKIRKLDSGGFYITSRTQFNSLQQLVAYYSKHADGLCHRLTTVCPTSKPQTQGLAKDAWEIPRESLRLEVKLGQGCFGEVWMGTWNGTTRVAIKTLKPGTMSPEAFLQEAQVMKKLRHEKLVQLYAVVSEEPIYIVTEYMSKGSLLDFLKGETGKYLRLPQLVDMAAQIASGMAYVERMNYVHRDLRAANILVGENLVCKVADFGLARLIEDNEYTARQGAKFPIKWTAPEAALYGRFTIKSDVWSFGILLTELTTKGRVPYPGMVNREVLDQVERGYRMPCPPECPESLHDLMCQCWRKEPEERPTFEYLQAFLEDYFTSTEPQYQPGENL
T1 sequence (P00533 25-1210): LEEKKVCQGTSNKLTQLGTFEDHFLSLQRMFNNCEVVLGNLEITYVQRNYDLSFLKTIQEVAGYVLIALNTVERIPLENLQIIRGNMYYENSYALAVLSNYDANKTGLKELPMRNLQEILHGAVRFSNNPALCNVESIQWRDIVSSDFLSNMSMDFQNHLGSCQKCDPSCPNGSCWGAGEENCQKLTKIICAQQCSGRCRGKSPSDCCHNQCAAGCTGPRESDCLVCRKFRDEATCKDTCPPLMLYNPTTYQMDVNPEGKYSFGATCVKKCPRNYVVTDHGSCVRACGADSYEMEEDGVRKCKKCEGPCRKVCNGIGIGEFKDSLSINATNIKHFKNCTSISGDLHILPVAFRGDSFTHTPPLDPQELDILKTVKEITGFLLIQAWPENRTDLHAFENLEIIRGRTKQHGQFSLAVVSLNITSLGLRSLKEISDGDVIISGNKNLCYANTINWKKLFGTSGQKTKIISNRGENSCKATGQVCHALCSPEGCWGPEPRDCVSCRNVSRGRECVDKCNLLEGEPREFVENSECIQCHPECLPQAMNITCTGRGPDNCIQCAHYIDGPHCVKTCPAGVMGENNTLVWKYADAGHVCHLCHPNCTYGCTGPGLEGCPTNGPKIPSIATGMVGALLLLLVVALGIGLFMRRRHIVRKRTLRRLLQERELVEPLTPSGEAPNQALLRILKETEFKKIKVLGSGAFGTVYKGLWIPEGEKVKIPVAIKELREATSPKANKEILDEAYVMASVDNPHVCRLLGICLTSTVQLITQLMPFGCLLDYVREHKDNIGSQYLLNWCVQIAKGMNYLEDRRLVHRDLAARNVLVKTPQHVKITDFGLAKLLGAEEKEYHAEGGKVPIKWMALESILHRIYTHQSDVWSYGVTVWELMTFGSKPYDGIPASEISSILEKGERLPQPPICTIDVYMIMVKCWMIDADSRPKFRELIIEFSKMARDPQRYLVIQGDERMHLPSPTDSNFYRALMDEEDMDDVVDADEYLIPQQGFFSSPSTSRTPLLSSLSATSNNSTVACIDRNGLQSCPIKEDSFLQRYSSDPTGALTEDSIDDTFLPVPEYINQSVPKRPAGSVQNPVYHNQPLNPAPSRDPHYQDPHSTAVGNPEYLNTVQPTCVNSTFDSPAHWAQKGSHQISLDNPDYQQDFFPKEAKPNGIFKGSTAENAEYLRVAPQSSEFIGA
T2 sequence (P08069 31-1367): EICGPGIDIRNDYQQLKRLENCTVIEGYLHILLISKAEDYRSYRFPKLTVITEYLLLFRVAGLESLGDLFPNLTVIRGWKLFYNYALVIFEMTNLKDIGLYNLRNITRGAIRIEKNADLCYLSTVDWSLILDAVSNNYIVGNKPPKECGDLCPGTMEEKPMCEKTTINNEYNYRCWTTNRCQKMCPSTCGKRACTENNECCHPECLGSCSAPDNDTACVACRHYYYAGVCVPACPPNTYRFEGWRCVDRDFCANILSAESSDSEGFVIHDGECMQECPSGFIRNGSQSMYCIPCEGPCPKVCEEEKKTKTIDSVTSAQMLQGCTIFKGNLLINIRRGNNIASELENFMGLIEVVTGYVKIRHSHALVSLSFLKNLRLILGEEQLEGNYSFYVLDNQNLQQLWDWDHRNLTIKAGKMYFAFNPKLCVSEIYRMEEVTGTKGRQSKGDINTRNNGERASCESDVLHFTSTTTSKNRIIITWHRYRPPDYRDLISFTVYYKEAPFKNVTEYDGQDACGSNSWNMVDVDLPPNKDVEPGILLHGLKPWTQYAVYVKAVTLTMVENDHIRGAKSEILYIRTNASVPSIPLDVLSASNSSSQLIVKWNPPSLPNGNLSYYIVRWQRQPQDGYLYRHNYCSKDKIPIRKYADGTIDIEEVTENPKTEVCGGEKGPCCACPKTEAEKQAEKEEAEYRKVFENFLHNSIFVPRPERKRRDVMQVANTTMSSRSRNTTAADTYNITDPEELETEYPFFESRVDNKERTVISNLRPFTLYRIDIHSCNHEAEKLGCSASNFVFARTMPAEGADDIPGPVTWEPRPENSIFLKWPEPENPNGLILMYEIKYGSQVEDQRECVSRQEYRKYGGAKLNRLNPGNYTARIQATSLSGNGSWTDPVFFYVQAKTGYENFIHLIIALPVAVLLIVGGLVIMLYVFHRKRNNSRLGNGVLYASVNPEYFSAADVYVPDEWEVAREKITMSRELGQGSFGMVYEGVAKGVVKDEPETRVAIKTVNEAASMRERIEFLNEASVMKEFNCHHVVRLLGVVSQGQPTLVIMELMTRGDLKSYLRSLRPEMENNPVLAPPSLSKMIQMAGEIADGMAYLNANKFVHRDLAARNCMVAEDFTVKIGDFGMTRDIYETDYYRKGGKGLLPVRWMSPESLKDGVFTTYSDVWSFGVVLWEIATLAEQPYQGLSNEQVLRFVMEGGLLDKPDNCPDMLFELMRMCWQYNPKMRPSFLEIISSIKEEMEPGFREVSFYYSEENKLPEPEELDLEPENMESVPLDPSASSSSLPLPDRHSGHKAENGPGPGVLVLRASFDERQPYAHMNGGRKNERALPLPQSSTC

| Structure (SMILES) | EC50 [1] [µM] | EC50 [2] [µM] | further results |
| --- | --- | --- | --- |
| C=CCC/C=C/C(Cc1c(Cl)c(O)cc(O)c1C(=O)OCCC=C)=NOCC(=O)N1CCCCC1 [2a-7] | > 10 | > 10 | – |
| C[C@@H]1CC=CCC/C=C/C(=O)Cc2c(Cl)c(OCOCC[Si](C)(C)C)cc(OCOCC[Si](C)(C)C)c2C(=O)O1 | – | – | ring closure, yield of all isomers ([3]; from C=CCC/C=C/C(=O)Cc1c(Cl)c(OCOCC[Si](C)(C)C)cc(OCOCC[Si](C)(C)C)c1C(=O)O[C@H](C)CC=C, 12.0 h): 87% |
| O=C1OCC/C=C/CC/C=C/C(=NOCC(=O)N2CCNCC2)Cc2c(Cl)c(O)cc(O)c21 [2a-15] | > 10 | > 10 | – |
| O=C(CON=C1/C=C/CC/C=C/CCOC(=O)c2c(O)cc(O)c(Cl)c2C1)NCCO [2a-4] | > 10 | 7.5 | – |
| C[C@@H]1CC=CCC/C=C/C(=O)Cc2c(Cl)c(O[Si](C)(C)C(C)(C)C)cc(O[Si](C)(C)C(C)(C)C)c2C(=O)O1 | – | – | ring closure, yield of all isomers ([3]; from C=CCC/C=C/C(=O)Cc1c(Cl)c(O[Si](C)(C)C(C)(C)C)cc(O[Si](C)(C)C(C)(C)C)c1C(=O)O[C@H](C)CC=C, 12.0 h): 87% |
| O=C(CON=C1/C=C/CC/C=C/CCOC(=O)c2c(O)cc(O)c(Cl)c2C1)NC1CCCCC1 [2a-16] | 0.45 | 0.55 | – |
| CCOCOc1cc2c(c(OCOCC)c1)C(=O)O[C@H](c1ccccc1)C/C=C/CC/C=C/C(=O)C2 [A-1] | – | – | IC50 [4]: 33 µM; IC50 [5]: 23 µM; IC50 [6]: 11 µM |
| COC1CC/C=C/C[C@H](c2ccccc2)OC(=O)c2c(O)cc(O)c(Cl)c2CC(=O)C1 (stereo partly shown) [A2] | – | – | IC50 [6]: 8 µM |
| O=C(CON=C1/C=C/CC/C=C/CCOC(=O)c2c(O)cc(O)c(Cl)c2C1)NCc1ccccc1 [2a-17] | 8.5 | 3.5 | – |
| CNC(=O)CO/N=C1/C=C/CC/C=C/CCOC(=O)c2c(O)cc(O)c(Cl)c2C1 [2a-8] | > 10 | > 10 | – |
| CCOCOc1cc(OCOCC)c2c(c1Cl)CC(=O)C=CCCC=CC[C@@H](C)OC2=O | – | – | ring closure, yield of all isomers ([3]; from C=CCCC=CC(=O)Cc1c(Cl)c(OCOCC)cc(OCOCC)c1C(=O)O[C@H](C)CC=C): 94% |
| CCOCOc1cc2c(c(OCOCC)c1)C(=O)O[C@H](C)CC=CCCC=CC(=O)C2 | – | – | ring closure, yield of all isomers ([3]; from C=CCCC=CC(=O)Cc1cc(OCOCC)cc(OCOCC)c1C(=O)O[C@H](C)CC=C, 2 steps): 40% |
| O=C1OCC/C=C/CC/C=C/C(=NOCC(=O)N2CCOCC2)Cc2c(Cl)c(O)cc(O)c21 [2a-18] | > 10 | > 10 | – |
